Experimental data reported in ChEMBL document CHEMBL1132956 (J Med Chem, 2000).

Tests used:
Homo sapiens [1] = organism: Homo sapiens; assay: tissue or blood
Description: In vitro assay for PGE-2 production as a function of COX-2 inhibition in whole human blood cultured with lipopolysaccharide (LPS)

Homo sapiens [2] = organism: Homo sapiens; assay: tissue or blood; remark: listed apart in the source
Description: Analysis of TXB2 as a function of COX-1 activity in heparinized human whole blood.

[3] = target: Prostaglandin G/H synthase 1 (Homo sapiens, UniProt P23219)
Sequence of Prostaglandin G/H synthase 1 (P23219 whole entry): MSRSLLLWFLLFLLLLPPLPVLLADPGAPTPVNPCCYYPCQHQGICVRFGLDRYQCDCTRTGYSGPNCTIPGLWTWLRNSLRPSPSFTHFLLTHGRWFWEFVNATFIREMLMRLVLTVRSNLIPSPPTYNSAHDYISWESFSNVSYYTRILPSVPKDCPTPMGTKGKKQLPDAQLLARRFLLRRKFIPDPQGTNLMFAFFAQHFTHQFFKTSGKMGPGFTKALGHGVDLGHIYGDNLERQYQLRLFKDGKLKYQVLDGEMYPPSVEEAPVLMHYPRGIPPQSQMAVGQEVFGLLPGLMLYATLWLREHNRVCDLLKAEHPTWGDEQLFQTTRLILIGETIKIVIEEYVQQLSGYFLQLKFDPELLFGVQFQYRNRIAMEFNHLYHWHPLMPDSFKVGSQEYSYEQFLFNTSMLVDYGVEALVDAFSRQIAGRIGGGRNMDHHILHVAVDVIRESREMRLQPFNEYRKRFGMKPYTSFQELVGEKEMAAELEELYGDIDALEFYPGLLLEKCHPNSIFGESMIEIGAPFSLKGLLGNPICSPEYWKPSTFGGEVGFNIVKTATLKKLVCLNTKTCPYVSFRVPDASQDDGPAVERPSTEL
Description: In Vitro activity of compound against human recombinant Prostaglandin G/H synthase 1

Structure (SMILES) | IC50 (Homo sapiens [1]) | IC50 (Homo sapiens [2]) | IC50 [3]
Cc1ccc(-c2cc(C(F)(F)F)nn2-c2ccc(S(N)(=O)=O)cc2)cc1 [CELECOXIB] | 0.164 µM | 6.67 µM | 
Cc1onc(-c2ccccc2)c1-c1ccc(S(N)(=O)=O)cc1 [VALDECOXIB] | 0.89 µM | 25.4 µM | 
NS(=O)(=O)c1ccc(-c2c(-c3ccccc3)noc2CO)cc1 [HYDROXYLATED DERIVATIVE] | 0.329 µM | > 50 µM | 1120 µM
